Key:
Format in all cases: in vivo
[1] = test system: Johnsongrass (Sorghum halepense, SORHA); assay: Pre-emerge greenhouse herbicide test, phytotoxicity rating; conditions: 14 days after application, rating scale 0-100
Procedure, shortened: (§1)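 Seeds sown in sandy loam one day before track-sprayer application of acetone solutions at 125–1000 g ai/ha (187 l/ha), then surface-watered to incorporate and bottom-watered. Injury scored visually at 14 days on a 0–100 scale (0 no damage, 100 complete death).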

[2] = test system: barnyardgrass (Echinochloa crusgalli, ECHCG); assay: as above; conditions: 14 days after application, rating scale 0-100
Procedure, shortened: as §1

[3] = test system: common ragweed (Ambrosia artemisiifolia L., AMBEL); assay: as above; conditions: 14 days after application, rating scale 0-100
Procedure, shortened: as §1

[4] = test system: green foxtail (Setaria viridis, SETVI); assay: as above; conditions: 14 days after application, rating scale 0-100
Procedure, shortened: as §1

[5] = test system: ivyleaf morningglory (Ipomoea hederacea, IPOHE); assay: as above; conditions: 14 days after application, rating scale 0-100
Procedure, shortened: as §1

[6] = test system: lambsquarters (Chenopodium album, CHEAL); assay: as above; conditions: 14 days after application, rating scale 0-100
Procedure, shortened: as §1

[7] = test system: large crabgrass (Digitaria sanguinalis, DIGSA); assay: as above; conditions: 14 days after application, rating scale 0-100
Procedure, shortened: as §1

[8] = test system: redroot pigweed (Amaranthus retroflexus, AMARE); assay: as above; conditions: 14 days after application, rating scale 0-100
Procedure, shortened: as §1

[9] = test system: sicklepod (Cassia obtusifolia, CASOB); assay: as above; conditions: 14 days after application, rating scale 0-100
Procedure, shortened: as §1

[10] = test system: velvetleaf (Abutilon theophrasti, ABUTH); assay: as above; conditions: 14 days after application, rating scale 0-100
Procedure, shortened: as §1

[11] = test system: field corn (Zea mays L., var. Dekalb 535, CORN); assay: Pre-emerge greenhouse test, crop damage rating; conditions: 14 days after application, rating scale 0-100
Procedure, shortened: as §1

[12] = test system: upland rice (Oryza sp., var.Tebonnet, RICE); assay: Pre-emerge greenhouse test, crop damage rating; conditions: 14 days after application, rating scale 0-100
Procedure, shortened: as §1

[13] = test system: soybean (Glycine max L., var. Pella 86, SOY); assay: Pre-emerge greenhouse test, crop damage rating; set-up: key to SOY crop damage rating: 0 = no damage, 100 = complete death of all plants; conditions: 14 days after application, rating scale 0-100
Procedure, shortened: as §1

[14] = test system: common ragweed (Ambrosia artemisiifolia L., AMBEL); assay: Post-emerge greenhouse herbicide test, phytotoxicity rating; conditions: 14 days after application; for phytotoxicity rating AMBEL: scale 0-100
Procedure, shortened: (§2)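 Plants at the 2-3 leaf stage, sown 8-21 days earlier, were track-sprayed post-emergence with compound in acetone plus 0.25% v/v non-ionic surfactant at 63-1000 g ai/ha (187 l/ha). Damage was rated at 14 days on a 0-100 scale (0 none, 100 all plants dead), for both crop injury and weed control.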

[15] = test system: Johnsongrass (Sorghum halepense, SORHA); assay: as above; conditions: 14 days after application; for phytotoxicity rating SORHA: scale 0-100
Procedure, shortened: as §2

[16] = test system: barnyardgrass (Echinochloa crusgalli, ECHCG); assay: as above; conditions: 14 days after application; for phytotoxicity rating ECHCG: scale 0-100
Procedure, shortened: as §2

[17] = test system: green foxtail (Setaria viridis, SETVI); assay: as above; conditions: 14 days after application; for phytotoxicity rating SETVI: scale 0-100
Procedure, shortened: as §2

[18] = test system: ivyleaf morningglory (Ipomoea hederacea, IPOHE); assay: as above; conditions: 14 days after application; for phytotoxicity rating IPOHE: scale 0-100
Procedure, shortened: as §2

[19] = test system: lambsquarters (Chenopodium album, CHEAL); assay: as above; conditions: 14 days after application; for phytotoxicity rating CHEAL: scale 0-100
Procedure, shortened: as §2

[20] = test system: large crabgrass (Digitaria sanguinalis, DIGSA); assay: as above; conditions: 14 days after application; for phytotoxicity rating DIGSA: scale 0-100
Procedure, shortened: as §2

[21] = test system: redroot pigweed (Amaranthus retroflexus, AMARE); assay: as above; conditions: 14 days after application; for phytotoxicity rating AMARE: scale 0-100
Procedure, shortened: as §2

[22] = test system: velvetleaf (Abutilon theophrasti, ABUTH); assay: as above; conditions: 14 days after application; for phytotoxicity rating ABUTH: scale 0-100
Procedure, shortened: as §2

[23] = test system: field corn (Zea mays L., var. Dekalb 535, CORN); assay: Post-emerge greenhouse test, crop damage rating; conditions: 14 days after application; for crop damage rating CORN: scale 0-100
Procedure, shortened: as §2

[24] = test system: upland rice (Oryza sp., var.Tebonnet, RICE); assay: Post-emerge greenhouse test, crop damage rating; conditions: 14 days after application; for crop damage rating RICE: scale 0-100
Procedure, shortened: as §2

[25] = test system: soybean (Glycine max L., var. Pella 86, SOY); assay: Post-emerge greenhouse test, crop damage rating; set-up: key to crop damage rating SOY: 0-100 scale: 0 = no damage, 100 = complete death of all plants; conditions: 14 days after application; for crop damage rating SOY: scale 0-100
Procedure, shortened: as §2

O=c1n(CCCF)nnn1-c1cc(Oc2ncccn2)c(Cl)cc1Cl [Compound 6-14]
phytotoxicity rating SORHA ([1]; 125 g ai/ha): 80
phytotoxicity rating SORHA ([1]; 500 g ai/ha): 100
phytotoxicity rating ECHCG ([2]; 125 g ai/ha): 60
phytotoxicity rating ECHCG ([2]; 500 g ai/ha): 99
phytotoxicity rating AMBEL ([3]; 125 g ai/ha): 20
phytotoxicity rating AMBEL ([3]; 500 g ai/ha): 95
phytotoxicity rating SETVI ([4]; 125 g ai/ha): 100
phytotoxicity rating SETVI ([4]; 500 g ai/ha): 100
phytotoxicity rating IPOHE ([5]; 125 g ai/ha): 60
phytotoxicity rating IPOHE ([5]; 500 g ai/ha): 95
phytotoxicity rating CHEAL ([6]; 125 g ai/ha): 100
phytotoxicity rating CHEAL ([6]; 500 g ai/ha): 100
phytotoxicity rating DIGSA ([7]; 125 g ai/ha): 90
phytotoxicity rating DIGSA ([7]; 500 g ai/ha): 100
phytotoxicity rating AMARE ([8]; 125 g ai/ha): 100
phytotoxicity rating AMARE ([8]; 500 g ai/ha): 100
phytotoxicity rating CASOB ([9]; 125 g ai/ha): 60
phytotoxicity rating CASOB ([9]; 500 g ai/ha): 90
phytotoxicity rating ABUTH ([10]; 125 g ai/ha): 100
phytotoxicity rating ABUTH ([10]; 500 g ai/ha): 100
crop damage rating CORN ([11]; 125 g ai/ha): 20
crop damage rating CORN ([11]; 500 g ai/ha): 40
crop damage rating RICE ([12]; 125 g ai/ha): 30
crop damage rating RICE ([12]; 500 g ai/ha): 80
crop damage rating SOY ([13]; 125 g ai/ha): 10
crop damage rating SOY ([13]; 500 g ai/ha): 80
AMBEL phytotoxicity rating (0-100) ([14]; 63 g al/ha): 0
AMBEL phytotoxicity rating (0-100) ([14]; 500 g al/ha): 50
SORHA phytotoxicity rating (0-100) ([15]; 63 g al/ha): 30
SORHA phytotoxicity rating (0-100) ([15]; 500 g al/ha): 90
ECHCG phytotoxicity rating (0-100) ([16]; 63 g al/ha): 0
ECHCG phytotoxicity rating (0-100) ([16]; 500 g al/ha): 60
SETVI phytotoxicity rating (0-100) ([17]; 63 g al/ha): 0
SETVI phytotoxicity rating (0-100) ([17]; 500 g al/ha): 70
IPOHE phytotoxicity rating (0-100) ([18]; 63 g al/ha): 50
IPOHE phytotoxicity rating (0-100) ([18]; 500 g al/ha): 100
CHEAL phytotoxicity rating (0-100) ([19]; 63 g al/ha): 70
CHEAL phytotoxicity rating (0-100) ([19]; 500 g al/ha): 95
DIGSA phytotoxicity rating (0-100) ([20]; 63 g al/ha): 0
DIGSA phytotoxicity rating (0-100) ([20]; 500 g al/ha): 30
AMARE phytotoxicity rating (0-100) ([21]; 63 g al/ha): 20
AMARE phytotoxicity rating (0-100) ([21]; 500 g al/ha): 100
ABUTH phytotoxicity rating (0-100) ([22]; 63 g al/ha): 70
ABUTH phytotoxicity rating (0-100) ([22]; 500 g al/ha): 100
CORN crop damage rating (0-100) ([23]; 63 g al/ha): 0
CORN crop damage rating (0-100) ([23]; 500 g al/ha): 20
RICE crop damage rating (0-100) ([24]; 63 g al/ha): 20
RICE crop damage rating (0-100) ([24]; 500 g al/ha): 50
SOY crop damage rating (0-100) ([25]; 63 g al/ha): 50
SOY crop damage rating (0-100) ([25]; 500 g al/ha): 90

Nc1ccc(Oc2cc(-n3c(=O)n4n(c3=S)CCCC4)c(F)cc2Cl)nc1 [Compound 8-24]
SORHA phytotoxicity rating ([1]; Rate 125 g al/ha): 20
SORHA phytotoxicity rating ([1]; Rate 500 g al/ha): 20
ECHCG phytotoxicity rating ([2]; Rate 125 g al/ha): 0
ECHCG phytotoxicity rating ([2]; Rate 500 g al/ha): 40
AMBEL phytotoxicity rating ([3]; Rate 125 g al/ha): 80
AMBEL phytotoxicity rating ([3]; Rate 500 g al/ha): 100
SETVI phytotoxicity rating ([4]; Rate 125 g al/ha): 30
SETVI phytotoxicity rating ([4]; Rate 500 g al/ha): 80
IPOHE phytotoxicity rating ([5]; Rate 125 g al/ha): 0
IPOHE phytotoxicity rating ([5]; Rate 500 g al/ha): 70
CHEAL phytotoxicity rating ([6]; Rate 125 g al/ha): 99
CHEAL phytotoxicity rating ([6]; Rate 500 g al/ha): 100
DIGSA phytotoxicity rating ([7]; Rate 125 g al/ha): 0
DIGSA phytotoxicity rating ([7]; Rate 500 g al/ha): 30
AMARE phytotoxicity rating ([8]; Rate 125 g al/ha): 95
AMARE phytotoxicity rating ([8]; Rate 500 g al/ha): 100
CASOB phytotoxicity rating ([9]; Rate 125 g al/ha): 70
CASOB phytotoxicity rating ([9]; Rate 500 g al/ha): 50
ABUTH phytotoxicity rating ([10]; Rate 125 g al/ha): 100
ABUTH phytotoxicity rating ([10]; Rate 500 g al/ha): 100
CORN crop damage rating ([11]; Rate 125 g al/ha): 0
CORN crop damage rating ([11]; Rate 500 g al/ha): 0
RICE crop damage rating ([12]; Rate 125 g al/ha): 0
RICE crop damage rating ([12]; Rate 500 g al/ha): 20
SOY crop damage rating ([13]; Rate 125 g al/ha): 0
SOY crop damage rating ([13]; Rate 500 g al/ha): 30
phytotoxicity rating AMBEL ([14]; rate 63 g ai/ha): 0
phytotoxicity rating AMBEL ([14]; rate 500 g ai/ha): 50
phytotoxicity rating SORHA ([15]; rate 63 g ai/ha): 0
phytotoxicity rating SORHA ([15]; rate 500 g ai/ha): 50
phytotoxicity rating ECHCG ([16]; rate 63 g ai/ha): 10
phytotoxicity rating ECHCG ([16]; rate 500 g ai/ha): 0
phytotoxicity rating SETVI ([17]; rate 63 g ai/ha): 0
phytotoxicity rating SETVI ([17]; rate 500 g ai/ha): 20
phytotoxicity rating IPOHE ([18]; rate 63 g ai/ha): 70
phytotoxicity rating IPOHE ([18]; rate 500 g ai/ha): 80
phytotoxicity rating CHEAL ([19]; rate 63 g ai/ha): 50
phytotoxicity rating CHEAL ([19]; rate 500 g ai/ha): 80
phytotoxicity rating DIGSA ([20]; rate 63 g ai/ha): 50
phytotoxicity rating DIGSA ([20]; rate 500 g ai/ha): 20
phytotoxicity rating AMARE ([21]; rate 63 g ai/ha): 100
phytotoxicity rating AMARE ([21]; rate 500 g ai/ha): 100
phytotoxicity rating ABUTH ([22]; rate 63 g ai/ha): 95
phytotoxicity rating ABUTH ([22]; rate 500 g ai/ha): 100
crop damage rating CORN ([23]; rate 63 g ai/ha): 10
crop damage rating CORN ([23]; rate 500 g ai/ha): 10
crop damage rating RICE ([24]; rate 63 g ai/ha): 20
crop damage rating RICE ([24]; rate 500 g ai/ha): 30
crop damage rating SOY ([25]; rate 63 g ai/ha): 0
crop damage rating SOY ([25]; rate 500 g ai/ha): 40
